Test results as given in patent US20160135464A1, “PESTICIDAL COMPOSITIONS AND PROCESSES RELATED THERETO” (Dow AgroSciences LLC, priority 2014, published 2016).

Legend:
Assay type in all cases: in vivo
[1] = system: Beet Armyworm (BAW) (Spodoptera exigua); assay: Bioassay on beet armyworm (BAW), 128-well diet tray assay, percent mortality; conditions: for pest or weed control at 50 µg/cm2, 50 µg/cm2: Spodoptera exigua, 50 μg/cm^2
Protocol: (§1) Certain molecules disclosed in this document were tested against BAW and CEW using procedures described in the following examples. In the reporting of the results, the “BAW & CEW Rating Table” was used (See Table Section).
Bioassays on BAW (Spodoptera exigua)
Bioassays on BAW were conducted using a 128-well diet tray assay. One to five second instar BAW larvae were placed in each well (3 mL) of the diet tray that had been previously filled with 1 mL of artificial diet to which 50 μg/cm^2 of the test compound (dissolved in 50 μL of 90:10 acetone-water mixture) had been applied (to each of eight wells) and then allowed to dry. Trays were covered with a clear self-adhesive cover and held at 25° C., 14:10 light-dark for five to seven days. Percent mortality was recorded for the larvae in each well; activity in the eight wells was then averaged. The results are indicated in the table entitled “Table 5: Biological Results” (See Table Section).

[2] = system: Corn Earworm (CEW) (Helicoverpa zea); assay: Bioassay on corn earworm (CEW), 128-well diet tray assay, percent mortality; conditions: for pest or weed control at 50 µg/cm2, 50 µg/cm2: Helicoverpa zea, 50 μg/cm^2
Protocol: as §1
Bioassays on CEW (Helicoverpa zea)
Bioassays on CEW were conducted using a 128-well diet tray assay. One to five second instar CEW larvae were placed in each well (3 mL) of the diet tray that had been previously filled with 1 mL of artificial diet to which 50 μg/cm^2 of the test compound (dissolved in 50 μL of 90:10 acetone-water mixture) had been applied (to each of eight wells) and then allowed to dry. Trays were covered with a clear self-adhesive cover and held at 25° C., 14:10 light-dark for five to seven days. Percent mortality was recorded for the larvae in each well; activity in the eight wells was then averaged. The results are indicated in the table entitled “Table 5: Biological Results” (See Table Section).

[3] = system: Green Peach Aphid (GPA) (Myzus persicae); assay: Bioassay on green peach aphid (GPA), foliar spray on cabbage seedlings, corrected % control; conditions: 72 h, read-out: % Mortality GPA 200 ppm
Protocol: Certain molecules disclosed in this document were tested against GPA using procedures described in the following example. In the reporting of the results, the “GPA Rating Table” was used (See Table Section).
Cabbage seedlings grown in 3-inch pots, with 2-3 small (3-5 cm) true leaves, were used as test substrate. The seedlings were infested with 20-50 GPA (wingless adult and nymph stages) one day prior to chemical application. Four pots with individual seedlings were used for each treatment. Test compounds (2 mg) were dissolved in 2 mL of acetone/methanol (1:1) solvent, forming stock solutions of 1000 ppm test compound. […] A hand-held aspirator-type sprayer was used for spraying a solution to both sides of […] leaves until runoff. Reference plants (solvent check) were sprayed with the diluent only containing 20% by volume of acetone/methanol (1:1) solvent. Treated plants were held in a holding room for three days at approximately 25° C. and ambient relative humidity (RH) prior to grading. Evaluation was conducted by counting the number of live aphids per plant under a microscope.
Corrected % Control=100*(X−Y)/X • where • X=No. of live aphids on solvent check plants and • Y=No. of live aphids on treated plants
The results are indicated in the table entitled “Table 5: Biological Results” (See Table Section).

Row | Structure (SMILES) | pest or weed control at 50 µg/cm2, 50 µg/cm2 [1] | pest or weed control at 50 µg/cm2, 50 µg/cm2 [2] | % Mortality BAW 50 μg/cm^2 [1] | % Mortality CEW 50 μg/cm^2 [2] | pest or weed control at 200 ppm [3]
1 | CC(C)c1ccccc1N1C(=NN=Cc2ccc(-c3ncn(-c4ccc(OC(F)(F)F)cc4)n3)cc2)SCC1(O)C(F)(F)F (stereo in doubt) [Compound 246C, (Z)-3-(2-isopropylphenyl)-2-((E)-(4-(1-(4-(trifluoromethoxy)phenyl)-1H-1,2,4-triazol-3-yl)benzylidene)hydrazono)-4-(trifluoromethyl)thiazolidin-4-ol] | 50 to 100% | 50 to 100% |  |  | 
2 | Cc1cccc(C)c1/N=C(/N/N=C/c1ccc(-c2ncn(-c3ccc(OC(F)(F)F)cc3)n2)cc1)SCC#C[Si](C)(C)C [Compound 9C] |  |  | A (50-100) | A (50-100) | 
3 | COCCOC(C)C(=O)OCS/C(=N\c1c(C)cccc1C)N/N=C/c1ccc(-c2ncn(-c3ccc(OC(F)(F)F)cc3)n2)cc1 (stereo not drawn) [Compound 41C] | 50 to 100% | 50 to 100% |  |  | 
4 | COCCOC(C)C(=O)OCS/C(=N\c1c(C)cc(OC)cc1C)N/N=C/c1ccc(-c2ncn(-c3ccc(OC(F)(F)F)cc3)n2)cc1 (stereo not drawn) [Compound 42C] | 50 to 100% | 50 to 100% |  |  | 
5 | COc1cc(C)c(/N=C(/N/N=C/c2ccc(-c3ncn(-c4ccc(OC(F)(F)C(F)(F)F)cc4)n3)cc2)SCC(=O)O)c(C)c1 [Compound 50C] | 50 to 100% | 50 to 100% |  |  | 
6 | COc1cc(C)c(N2C(=O)CS/C2=N\N=C\c2ccc(-c3ncn(-c4ccc(OC(F)(F)F)cc4)n3)cc2)c(C)c1 [Compound 69C] | 50 to 100% | 50 to 100% |  |  | 
7 | Cc1cc(C)c(N2C(=O)CS/C2=N\N=C\c2ccc(-c3ncn(-c4ccc(OC(F)(F)F)cc4)n3)cc2)c(C)c1 [Compound 72C] | 50 to 100% | 50 to 100% |  |  | 0 to 80%
8 | CCN(CC)c1ccc(-c2cs/c(=N\N=Cc3ccc(-c4ncn(-c5ccc(OC(F)(F)F)cc5)n4)cc3)n2-c2c(C)cccc2C)cc1 [Compound 74C, 4-((2Z)-3-(2,6-dimethylphenyl)-2-((4-(1-(4-(trifluoromethoxy)phenyl)-1H-1,2,4-triazol-3-yl)benzylidene)hydrazono)-2,3-dihydrothiazol-4-yl)-N,N-diethylaniline] | 50 to 100% | 50 to 100% |  |  | 
9 | COc1ccc(N2C(=O)CS/C2=N\N=C\c2ccc(-c3ncn(-c4ccc(OC(F)(F)F)cc4)n3)cc2)cc1 [Compound 114C] | 50 to 100% | 50 to 100% |  |  | 
10 | CC1S/C(=N\N=C\c2ccc(-c3ncn(-c4ccc(OC(F)(F)F)cc4)n3)cc2)N(c2c(F)cccc2Cl)C1=O (stereo not drawn) [Compound 130C] | 50 to 100% | 50 to 100% |  |  | 
11 | Cc1cccc(C)c1N1CCS/C1=N\N=C\c1ccc(-c2ncn(-c3ccc(OC(F)(F)F)cc3)n2)cc1 [Compound 141C] | 50 to 100% | 50 to 100% |  |  | 
12 | Cc1ccccc1-n1c(C)cs/c1=N\N=C\c1ccc(-c2ncn(-c3ccc(OC(F)(F)F)cc3)n2)cc1 [Compound 173C] | 50 to 100% | 50 to 100% |  |  | 
13 | CCc1cccc(C)c1N1CCCS/C1=N\N=C\c1ccc(-c2ncn(-c3ccc(OC(F)(F)F)cc3)n2)cc1 [Compound 180C] | 50 to 100% | 50 to 100% |  |  | 0 to 80%
14 | CC(C)c1ccccc1N1CCCCC/S1=N\N=C\c1ccc(-c2ncn(-c3ccc(OC(F)(F)F)cc3)n2)cc1 (stereo not drawn) [Compound 212C] | 50 to 100% | 50 to 100% |  |  | 
15 | CC1(O)CS/C(=N\N=C\c2ccc(-c3ncn(-c4ccc(OC(F)(F)F)cc4)n3)cc2)N1c1c(F)cccc1F (stereo not drawn) [Compound 240C] | 50 to 100% | 50 to 100% |  |  | 
16 | CC1(O)CS/C(=N\c2c(Cl)cccc2C(F)(F)F)N1/N=C/c1ccc(-c2ncn(-c3ccc(OC(F)(F)F)cc3)n2)cc1 (stereo not drawn) [Compound 241C, (Z)-2-((2-chloro-6-(trifluoromethyl)phenyl)imino)-4-methyl-3-((E)-(4-(1-(4-(trifluoromethoxy)phenyl)-1H-1,2,4-triazol-3-yl)benzylidene)amino)thiazolidin-4-ol] | 50 to 100% | 50 to 100% |  |  | 

Row | Structure (SMILES) | pest or weed control at 50 µg/cm2, 50 µg/cm2 [1] | pest or weed control at 50 µg/cm2, 50 µg/cm2 [2] | % Mortality BAW 50 μg/cm^2 [1] | % Mortality CEW 50 μg/cm^2 [2] | pest or weed control at 200 ppm [3]
17 | CC(C)c1ccccc1N1/C(=N/N=C/c2ccc(-c3ncn(-c4ccc(OC(F)(F)F)cc4)n3)cc2)SCC1(C)O (stereo not drawn) [Compound 242C] | 50 to 100% | 50 to 100% |  |  | 0 to 80%
18 | CCC(C)c1ccccc1N1/C(=N/N=C/c2ccc(-c3ncn(-c4ccc(OC(F)(F)F)cc4)n3)cc2)SCC1(C)O (stereo not drawn) [Compound 243C] | 50 to 100% | 50 to 100% |  |  | 0 to 80%
19 | Cc1cccc(Cl)c1N1/C(=N/N=C/c2ccc(-c3ncn(-c4ccc(OC(F)(F)F)cc4)n3)cc2)SCC1(C)O (stereo not drawn) [Compound 244C] | 50 to 100% | 50 to 100% |  |  | 
20 | COc1ccc(N2/C(=N/N=C/c3ccc(-c4ncn(-c5ccc(OC(F)(F)F)cc5)n4)cc3)SCC2(C)O)c(C)c1 (stereo not drawn) [Compound 245C] | 50 to 100% | 50 to 100% |  |  | 0 to 80%
21 | CCC(C)c1ccccc1N1/C(=N/N=C/c2ccc(-c3ncn(-c4ccc(OC(F)(F)F)cc4)n3)cc2)SCC1(O)C(F)(F)F (stereo not drawn) [Compound 247C] | 50 to 100% | 50 to 100% |  |  | 
22 | Cc1ccccc1N1/C(=N/N=C/c2ccc(-c3ncn(-c4ccc(OC(F)(F)F)cc4)n3)cc2)SCC1(C)O (stereo not drawn) [Compound 248C] | 50 to 100% | 50 to 100% |  |  | 0 to 80%
23 | CC1(O)CS/C(=N\N=C\c2ccc(-c3ncn(-c4ccc(OC(F)(F)F)cc4)n3)cc2)N1c1ccccc1C1CCCC1 (stereo not drawn) [Compound 249C] | 50 to 100% | 50 to 100% |  |  | 
24 | Cc1cccc(N2/C(=N/N=C/c3ccc(-c4ncn(-c5ccc(OC(F)(F)F)cc5)n4)cc3)SCC2(C)O)c1C(C)C (stereo not drawn) [Compound 252C] | 50 to 100% | 50 to 100% |  |  | 
25 | Cc1ccc(C(C)C)c(N2/C(=N/N=C/c3ccc(-c4ncn(-c5ccc(OC(F)(F)F)cc5)n4)cc3)SCC2(C)O)c1 (stereo not drawn) [Compound 253C] | 50 to 100% | 50 to 100% |  |  | 
26 | COc1cc(C)c(N2/C(=N/N=C/c3ccc(-c4ncn(-c5ccc(OC(F)(F)F)cc5)n4)cc3)SCC2(C)O)c(C)c1 (stereo not drawn) [Compound 255C] | 50 to 100% | 50 to 100% |  |  | 
27 | CC(C)c1ccccc1N1/C(=N/N=C/c2ccc(-c3ncn(-c4ccc(OC(F)(F)F)cc4)n3)cc2)SC(C)C1(C)O (stereo not drawn) [Compound 257C] | 50 to 100% | 50 to 100% |  |  | 
28 | CC(C)c1cc(F)ccc1N1/C(=N/N=C/c2ccc(-c3ncn(-c4ccc(OC(F)(F)F)cc4)n3)cc2)SCC1(C)O (stereo not drawn) [Compound 258C] | 50 to 100% | 50 to 100% |  |  | 
29 | CC(C)c1cc(F)c(F)cc1N1/C(=N/N=C/c2ccc(-c3ncn(-c4ccc(OC(F)(F)F)cc4)n3)cc2)SCC1(C)O (stereo not drawn) [Compound 259C] | 50 to 100% | 50 to 100% |  |  | 
30 | CC(C)c1ccccc1N1/C(=N/N=C/c2ccc(-c3ncn(-c4ccc(C(F)(C(F)(F)F)C(F)(F)F)cc4)n3)cc2)SCC1(C)O (stereo not drawn) [Compound 260C] | 50 to 100% | 50 to 100% |  |  | 
31 | CC(C)c1ccccc1N1/C(=N/N=C/c2ccc(-c3ncn(-c4ccc(C(F)(F)F)cc4)n3)cc2)SCC1(C)O (stereo not drawn) [Compound 261C] | 50 to 100% | 50 to 100% |  |  | 
32 | CCc1cc(OC)ccc1N1/C(=N/N=C/c2ccc(-c3ncn(-c4ccc(OC(F)(F)C(F)(F)F)cc4)n3)cc2)SCC1(C)O (stereo not drawn) [Compound 264C] | 50 to 100% |  |  |  | 
